According to patent US9199962B2, “Substituted azaheterocycles for the treatment of cancer” (Merck Patent GmbH, priority 2011, dated 2015):
Read-outs that look alike come from different tables or passages of the source. Blank lines part the entries; values can stand above or below the molecule they belong to.

Molecular target: T1, GST-FAK (N-terminal GST fusion with truncated human FAK (376-1052 (end) amino acids)) (Homo sapiens, UniProt Q05397)
T1 construct: truncated human FAK (376-1052 (end) amino acids)
T1 sequence (Q05397 376-1052): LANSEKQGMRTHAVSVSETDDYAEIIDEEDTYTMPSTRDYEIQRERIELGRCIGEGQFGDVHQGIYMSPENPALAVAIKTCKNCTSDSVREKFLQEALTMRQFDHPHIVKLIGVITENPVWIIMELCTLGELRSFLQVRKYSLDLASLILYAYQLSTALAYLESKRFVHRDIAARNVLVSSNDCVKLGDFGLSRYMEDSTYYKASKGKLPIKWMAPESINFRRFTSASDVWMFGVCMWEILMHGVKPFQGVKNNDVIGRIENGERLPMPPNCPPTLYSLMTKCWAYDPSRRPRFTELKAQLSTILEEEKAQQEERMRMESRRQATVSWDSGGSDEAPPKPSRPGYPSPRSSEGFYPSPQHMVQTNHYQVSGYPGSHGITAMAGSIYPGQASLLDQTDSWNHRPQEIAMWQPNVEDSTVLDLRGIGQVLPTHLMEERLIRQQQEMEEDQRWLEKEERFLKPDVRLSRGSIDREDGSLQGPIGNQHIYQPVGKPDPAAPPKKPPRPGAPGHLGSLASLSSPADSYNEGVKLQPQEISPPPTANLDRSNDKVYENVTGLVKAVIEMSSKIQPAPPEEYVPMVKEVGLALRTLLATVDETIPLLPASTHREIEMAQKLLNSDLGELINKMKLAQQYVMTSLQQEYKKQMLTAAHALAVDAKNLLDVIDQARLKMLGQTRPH
Test: Biochemical enzyme assay for FAK activity (Caliper LC3000 mobility shift)
Settings: 100 uM ATP
Experimental: 1. Biochemical Enzyme Assays for FAK Activity
The FAK assays described here are performed on two Caliper Life Sciences systems, the LC3000 and the EZ Reader II. These provide data on enzyme activity via measurement of the relative amounts of phosphorylated or unphosphorylated fluorescently labelled substrate peptide at the end of an enzymatic reaction. These different states of peptide are resolved by applying a potential difference across the sample. The presence of the charged phosphate group on the product (as opposed to the substrate) causes different peptide mobility between the two peptides. This is visualized by excitation of the fluorescent label on the substrate and product peptides and represented as peaks within the analysis software.
In order to measure inhibitor activity of FAK, inhibitors in the Caliper Life Sciences LC3000, a TTP Mosquito liquid handling instrument is used to place 0.25 ul of the appropriate concentration of inhibitor in 100% DMSO (for a dose response curve calculation) into each well of a 384-well plate. To this reaction components are added to a final volume of 25 ul: • 0.067 ng/ul GST-FAK (N-terminal GST fusion with truncated human FAK (376-1052 (end) amino acids)) • 100 uM ATP • 1 mM DTT • 1 mM MgCl2 • 1 uM substrate peptide (sequence FITC-KGWMEDYDYVHLQGKK-(CONH2)SEQ ID NO: 1)) • 1 mM FERM peptide (sequence NH2-GATQSFIIR-COOH (SEQ ID NO: 2)) • 100 mM HEPES pH 7.5 • 0.015% Brij-35
The reaction is incubated for 90 min at 25 C, and then stopped by the addition of 70 ul of Stop buffer (100 mM HEPES pH 7.5, 0.015% Brij-35, 10 mM EDTA).
The plate is read on a Caliper LC 3000 in an Off-Chip mobility shift assay format, using the following parameters for a 12-sipper chip: screening pressure—1.9 psi, upstream voltage—3000, downstream voltage—700. These conditions cause unphosphorylated substrate and phosphorylated product peptide to resolve as separate peaks allowing direct measurement of percentage of conversion of substrate to product. The percent conversion can be plotted against concentration of inhibitor to produce a sigmoid dose response curve, from which an IC50 can be calculated using XLFit for Microsoft Excel.

- IC50 (Table 5, read-out: FAK IC50): 1 to 10 µM
SMILES: FC(F)(F)c1cncc(-c2nccc(NCCc3ccccc3Cl)n2)c1 [Compound 198, [2-(2-Chloro-phenyl)-ethyl]-[2-(5-trifluoromethyl-pyridin-3-yl)-pyrimidin-4-yl]-amine]

- IC50 (Table 5, read-out: FAK IC50): < 0.1 µM
SMILES: Fc1ccc(CNc2nccc(-c3cncc(C(F)(F)F)c3)n2)c(C(F)(F)F)c1 [Compound 247, (4-Fluoro-2-trifluoromethyl-benzyl)-[4-(5-trifluoromethyl-pyridin-3-yl)-pyrimidin-2-yl]-amine]

- IC50 (Table 5, read-out: FAK IC50): < 0.1 µM
SMILES: Fc1cnc(CNc2ccnc(-c3cncc(C(F)(F)F)c3)n2)c(F)c1 [Compound 209, (3,5-Difluoro-pyridin-2-ylmethyl)-[2-(5-trifluoromethyl-pyridin-3-yl)-pyrimidin-4-yl]-amine]

- IC50 (Table 1, read-out: FAK IC50): 1 to 10 µM
SMILES: FC(F)(F)c1cncc(-c2nccc(NCc3cccc(-n4cccn4)c3)n2)c1 [Compound 29, (3-Pyrazol-1-yl-benzyl)-[2-(5-trifluoromethyl-pyridin-3-yl)-pyrimidin-4-yl]-amine]

- IC50 (Table 4, read-out: IC50 FAK): 0.1 to 1 µM
SMILES: N#Cc1cncc(-c2nccc(NCc3ccc(F)cc3F)n2)c1 [Compound 180, 5-[4-[(2,4-difluorophenyl)methylamino]pyrimidin-2-yl]pyridine-3-carbonitrile]

- IC50 (Table 5, read-out: FAK IC50): > 10 µM
SMILES: O=C1CCCN1CCNc1ccnc(-c2cncc(C(F)(F)F)c2)n1 [Compound 200, 1-{2-[2-(5-Trifluoromethyl-pyridin-3-yl)-pyrimidin-4-ylamino]-ethyl}-pyrrolidin-2-one]

- IC50 (Table 5, read-out: FAK IC50): 1 to 10 µM
SMILES: Fc1ccccc1CNc1ccnc(-c2cccnc2F)n1 [Compound 205, (2-Fluoro-benzyl)-[2-(2-fluoro-pyridin-3-yl)-pyrimidin-4-yl]-amine]

- IC50 (Table 5, read-out: FAK IC50): 0.1 to 1 µM
SMILES: Cc1ccccc1CNc1ccnc(-c2cncc(C(F)(F)F)c2)n1 [Compound 186, (2-Methyl-benzyl)-[2-(5-trifluoromethyl-pyridin-3-yl)-pyrimidin-4-yl]-amine]

- IC50 (Table 5, read-out: FAK IC50): > 10 µM
SMILES: Fc1ccc(CNc2ccnc(-c3cccc(C(F)(F)F)c3)n2)c(F)c1 [Compound 240, (2,4-Difluoro-benzyl)-[2-(3-trifluoromethyl-phenyl)-pyrimidin-4-yl]-amine]

- IC50 (Table 3, read-out: FAK IC50): > 10 µM
SMILES: CNCC(Nc1ccnc(-c2cccnc2N)n1)c1ccccc1 (stereo not shown) [Compound 144, N1-[2-(2-Aminopyridin-3-yl)pyrimidin-4-yl]-N2-methyl-1-phenylethane-1,2-diamine]

- IC50 (Table 3, read-out: FAK IC50): > 10 µM
SMILES: CS(=O)(=O)c1ccc(CNc2ccnc(-c3cccnc3N)n2)cc1 [Compound 99, 2-(2-Aminopyridin-3-yl)-N-[4-(methylsulfonyl)benzyl]pyrimidin-4-amine]

- IC50 (Table 5, read-out: FAK IC50): 0.1 to 1 µM
SMILES: Fc1ccc(CNc2nc(-c3cncc(C(F)(F)F)c3)nc3[nH]cnc23)c(F)c1 [Compound 237, (2,4-Difluoro-benzyl)-[2-(5-trifluoromethyl-pyridin-3-yl)-9H-purin-6-yl]-amine]

- IC50 (Table 3, read-out: FAK IC50): 1 to 10 µM
SMILES: Cc1ccc(CNc2ccnc(-c3cccnc3N)n2)c(F)c1 [Compound 101, 2-(2-Aminopyridin-3-yl)-N-(2-fluoro-4-methylbenzyl)pyrimidin-4-amine]

- IC50 (Table 3, read-out: FAK IC50): > 10 µM
SMILES: CN(c1ncccc1CNc1ccnc(-c2cccnc2N)n1)S(C)(=O)=O [Compound 88, N-[3-({[2-(2-Aminopyridin-3-yl)pyrimidin-4-yl]amino}methyl)pyridin-2-yl]-N-methylmethane-sulfonamide]

- IC50 (Table 5, read-out: FAK IC50): > 10 µM
SMILES: CN(C)C(=O)c1ccccc1Nc1ccnc(-c2cncc(C(F)(F)F)c2)n1 [Compound 255, N,N-Dimethyl-2-[2-(5-trifluoromethyl-pyridin-3-yl)-pyrimidin-4-ylamino]-benzamide]

The remaining lines, values behind:

SMILES: COc1ccc(CNc2ccnc(-c3cccnc3N)n2)cc1 [Compound 97, 2-(2-Aminopyridin-3-yl)-N-(4-methoxybenzyl)pyrimidin-4-amine]
- IC50 (Table 3, read-out: FAK IC50): > 10 µM

SMILES: COc1cncc(-c2nccc(NCc3cc(F)ccc3F)n2)c1 [Compound 226, (2,5-Difluoro-benzyl)-[2-(5-methoxy-pyridin-3-yl)-pyrimidin-4-yl]-amine]
- IC50 (Table 5, read-out: FAK IC50): 0.1 to 1 µM

SMILES: COc1cncc(-c2nccc(NCc3ccc(N4CCOCC4)cc3)n2)c1 [Compound 4, [2-(5-Methoxy-pyridin-3-yl)-pyrimidin-4-yl]-(4-morpholin-4-yl-benzyl)-amine]
- IC50 (Table 1, read-out: FAK IC50): > 10 µM

SMILES: O=C(NCCN1CCNC1=O)c1cc(NCc2ccc(F)cc2F)nc(-c2cncc(C(F)(F)F)c2)n1 [Compound 75, 6-(2,4-Difluoro-benzylamino)-2-(5-trifluoromethyl-pyridin-3-yl)-pyrimidine-4-carboxylic acid [2-(2-oxo-imidazolidin-1-yl)-ethyl]-amide]
- IC50 (Table 2, read-out: FAK IC50): 0.1 to 1 µM

SMILES: CC(NC(=O)c1cc(NCc2ccc(F)cc2F)nc(-c2cncc(C(F)(F)F)c2)n1)C(N)=O (stereo not shown) [Compound 263, 6-(2,4-Difluoro-benzylamino)-2-(5-trifluoromethyl-pyridin-3-yl)-pyrimidine-4-carboxylic acid (1-carbamoyl-ethyl)-amide]
- IC50 (Table 5, read-out: FAK IC50): < 0.1 µM

SMILES: COc1cncc(-c2nccc(NCc3ccc4[nH]c(=O)[nH]c4c3)n2)c1 [Compound 216, 5-{[2-(5-Methoxy-pyridin-3-yl)-pyrimidin-4-ylamino]-methyl}-1,3-dihydro-benzoimidazol-2-one]
- IC50 (Table 5, read-out: FAK IC50): > 10 µM

SMILES: Fc1ccccc1CNc1ccnc(-c2cccnc2)n1 [Compound 93, N-(2-Fluorobenzyl)-2-pyridin-3-ylpyrimidin-4-amine]
- IC50 (Table 3, read-out: FAK IC50): 0.1 to 1 µM

SMILES: Nc1ncccc1-c1nccc(N2Cc3ccccc3C2=O)n1 [Compound 120, 2-[2-(2-Aminopyridin-3-yl)pyrimidin-4-yl]isoindolin-1-one]
- IC50 (Table 3, read-out: FAK IC50): > 10 µM

SMILES: O=C(O)c1cc(NCc2ccc(F)cc2F)nc(-c2cncc(C(F)(F)F)c2)n1 [Compound 272, 6-(2,4-Difluoro-benzylamino)-2-(5-trifluoromethyl-pyridin-3-yl)-pyrimidine-4-carboxylic acid]
- IC50 (Table 5, read-out: FAK IC50): 0.1 to 1 µM

SMILES: COc1ncccc1NC(=O)c1cc(NCc2ccc(F)cc2F)nc(-c2cncc(C(F)(F)F)c2)n1 [Compound 233, 6-(2,4-Difluoro-benzylamino)-2-(5-trifluoromethyl-pyridin-3-yl)-pyrimidine-4-carboxylic acid (2-methoxy-pyridin-3-yl)-amide]
- IC50 (Table 5, read-out: FAK IC50): 0.1 to 1 µM

SMILES: CS(=O)(=O)c1cccc(CNc2ccnc(-c3cccnc3N)n2)c1 [Compound 90, 2-(2-Aminopyridin-3-yl)-N-[3-(methylsulfonyl)benzyl]pyrimidin-4-amine]
- IC50 (Table 3, read-out: FAK IC50): 1 to 10 µM

SMILES: CCOC(=O)c1ccccc1Nc1ccnc(-c2cncc(C(F)(F)F)c2)n1 [Compound 250, 2-[2-(5-Trifluoromethyl-pyridin-3-yl)-pyrimidin-4-ylamino]-benzoic acid ethyl ester]
- IC50 (Table 5, read-out: FAK IC50): > 10 µM

SMILES: CNC[C@@H](Nc1ccnc(-c2cccnc2N)n1)c1cccc(F)c1 [Compound 145, (S)-N1-[2-(2-Amino-pyridin-3-yl)-pyrimidin-4-yl]-1-(3-fluoro-phenyl)-N2-methyl-ethane-1,2-diamine]
- IC50 (Table 3, read-out: FAK IC50): > 10 µM

SMILES: Cn1cc(NC(=O)c2cc(NCc3ccc(F)cc3F)nc(-c3cncc(C(F)(F)F)c3)n2)cn1 [Compound 246, 6-(2,4-Difluoro-benzylamino)-2-(5-trifluoromethyl-pyridin-3-yl)-pyrimidine-4-carboxylic acid (1-methyl-1H-pyrazol-4-yl)-amide]
- IC50 (Table 5, read-out: FAK IC50): 0.1 to 1 µM

SMILES: CNC(=O)[C@H](NC(=O)c1cc(NCc2ccc(F)cc2F)nc(-c2cncc(C(F)(F)F)c2)n1)C(C)C [Compound 76, 6-(2,4-Difluoro-benzylamino)-2-(5-trifluoromethyl-pyridin-3-yl)-pyrimidine-4-carboxylic acid ((R)-2-methyl-1-methylcarbamoyl-propyl)-amide]
- IC50 (Table 2, read-out: FAK IC50): 0.1 to 1 µM

SMILES: Fc1ccc(CNc2cc(NC3CCNCC3)nc(-c3cncc(C(F)(F)F)c3)n2)c(F)c1 [Compound 66, N-(2,4-Difluoro-benzyl)-N′-piperidin-4-yl-2-(5-trifluoromethyl-pyridin-3-yl)-pyrimidine-4,6-diamine]
- IC50 (Table 2, read-out: FAK IC50): 0.1 to 1 µM

SMILES: CC1(C)Cc2cccc(CNc3ccnc(-c4cncc(F)c4)n3)c2O1 [Compound 8, (2,2-Dimethyl-2,3-dihydro-benzofuran-7-ylmethyl)-[2-(5-fluoro-pyridin-3-yl)-pyrimidin-4-yl]-amine]
- IC50 (Table 1, read-out: FAK IC50): > 10 µM

SMILES: Clc1cncc(-c2nccc(NCc3cccc(Oc4cnccn4)c3)n2)c1 [Compound 19, [2-(5-Chloro-pyridin-3-yl)-pyrimidin-4-yl]-[3-(pyrazin-2-yloxy)-benzyl]-amine]
- IC50 (Table 1, read-out: FAK IC50): > 10 µM

SMILES: C[C@H](Nc1ccnc(-c2cccnc2N)n1)c1ccccc1C(F)(F)F [Compound 138, 2-(2-Aminopyridin-3-yl)-N-{(1S)-1-[2-(trifluoromethyl)phenyl]ethyl}pyrimidin-4-amine]
- IC50 (Table 3, read-out: FAK IC50): 1 to 10 µM
